Measured values reported in ChEMBL document CHEMBL3272130, “Synthesis and hypotensive activity of some cyclopentano-1,2,3,4-tetrahydroisoquinolines” (J Med Chem, 1977).

Legend:
[1] = tested on: Rattus norvegicus; assay: Cardiovascular activity in deoxycorticosterone acetate treated hypertensive CD rat assessed as change in heart rate at 25 mg, ip after 2 hrs relative to control; assay type: ADME, organism-based; settings: in vivo
[2] = tested on: Rattus norvegicus; assay: Cardiovascular activity in deoxycorticosterone acetate treated hypertensive CD rat assessed as change in heart rate at 25 mg, ip after 4 hrs relative to control; assay type: ADME, organism-based; settings: in vivo
[3] = Toxicity in ip dosed Swiss-Webster mouse after 24 hrs; assay type: organism-based; settings: in vivo
[4] = tested on: Rattus norvegicus; assay: Hypotensive activity in deoxycorticosterone acetate treated hypertensive CD rat assessed as change in blood pressure at 25 mg, ip after 4 hrs relative to control; assay type: functional
[5] = tested on: Rattus norvegicus; assay: Hypotensive activity in deoxycorticosterone acetate treated hypertensive CD rat assessed as change in blood pressure at 25 mg, ip after 1 hr relative to control; assay type: functional
[6] = tested on: Rattus norvegicus; assay: Hypotensive activity in deoxycorticosterone acetate treated hypertensive CD rat assessed as change in blood pressure at 25 mg, ip after 2 hrs relative to control; assay type: functional
[7] = tested on: Rattus norvegicus; assay: Cardiovascular activity in deoxycorticosterone acetate treated hypertensive CD rat assessed as change in heart rate at 25 mg, ip after 1 hr relative to control; assay type: ADME, organism-based; settings: in vivo
[8] = tested on: Rattus norvegicus; assay: Cardiovascular activity in deoxycorticosterone acetate treated hypertensive CD rat assessed as change in heart rate at 25 mg, ip after 24 hrs relative to control; assay type: ADME, organism-based; settings: in vivo
[9] = tested on: Rattus norvegicus; assay: Hypotensive activity in deoxycorticosterone acetate treated hypertensive CD rat assessed as change in blood pressure at 25 mg, ip after 24 hrs relative to control; assay type: functional
[10] = tested on: Rattus norvegicus; assay: Hypotensive activity in deoxycorticosterone acetate treated hypertensive CD rat assessed as change in blood pressure at 4 mg, ip after 2 hrs relative to control; assay type: functional
[11] = tested on: Rattus norvegicus; assay: Hypotensive activity in deoxycorticosterone acetate treated hypertensive CD rat assessed as change in blood pressure at 4 mg, ip after 1 hr relative to control; assay type: functional
[12] = tested on: Rattus norvegicus; assay: Cardiovascular activity in deoxycorticosterone acetate treated hypertensive CD rat assessed as change in heart rate at 4 mg, ip after 1 hr relative to control; assay type: ADME, organism-based; settings: in vivo
[13] = tested on: Rattus norvegicus; assay: Hypotensive activity in deoxycorticosterone acetate treated hypertensive CD rat assessed as change in blood pressure at 4 mg, ip after 24 hrs relative to control; assay type: functional
[14] = tested on: Rattus norvegicus; assay: Cardiovascular activity in deoxycorticosterone acetate treated hypertensive CD rat assessed as change in heart rate at 4 mg, ip after 4 hrs relative to control; assay type: ADME, organism-based; settings: in vivo
[15] = tested on: Rattus norvegicus; assay: Cardiovascular activity in deoxycorticosterone acetate treated hypertensive CD rat assessed as change in heart rate at 4 mg, ip after 2 hrs relative to control; assay type: ADME, organism-based; settings: in vivo
[16] = tested on: Rattus norvegicus; assay: Cardiovascular activity in deoxycorticosterone acetate treated hypertensive CD rat assessed as change in heart rate at 4 mg, ip after 24 hrs relative to control; assay type: ADME, organism-based; settings: in vivo
[17] = tested on: Rattus norvegicus; assay: Hypotensive activity in deoxycorticosterone acetate treated hypertensive CD rat assessed as change in blood pressure at 4 mg, ip after 4 hrs relative to control; assay type: functional
[18] = tested on: Rattus norvegicus; assay: Hypotensive activity in deoxycorticosterone acetate treated hypertensive CD rat assessed as change in blood pressure at 10 mg, ip after 4 hrs relative to control; assay type: functional
[19] = tested on: Rattus norvegicus; assay: Cardiovascular activity in deoxycorticosterone acetate treated hypertensive CD rat assessed as change in heart rate at 10 mg, ip after 24 hrs relative to control; assay type: ADME, organism-based; settings: in vivo
[20] = tested on: Rattus norvegicus; assay: Hypotensive activity in deoxycorticosterone acetate treated hypertensive CD rat assessed as change in blood pressure at 10 mg, ip after 2 hrs relative to control; assay type: functional
[21] = tested on: Rattus norvegicus; assay: Hypotensive activity in deoxycorticosterone acetate treated hypertensive CD rat assessed as change in blood pressure at 5 mg, ip after 1 hr relative to control; assay type: functional
[22] = tested on: Rattus norvegicus; assay: Hypotensive activity in deoxycorticosterone acetate treated hypertensive CD rat assessed as change in blood pressure at 5 mg, ip after 4 hrs relative to control; assay type: functional
[23] = tested on: Rattus norvegicus; assay: Cardiovascular activity in deoxycorticosterone acetate treated hypertensive CD rat assessed as change in heart rate at 10 mg, ip after 2 hrs relative to control; assay type: ADME, organism-based; settings: in vivo
[24] = tested on: Rattus norvegicus; assay: Cardiovascular activity in deoxycorticosterone acetate treated hypertensive CD rat assessed as change in heart rate at 10 mg, ip after 4 hrs relative to control; assay type: ADME, organism-based; settings: in vivo
[25] = tested on: Rattus norvegicus; assay: Hypotensive activity in deoxycorticosterone acetate treated hypertensive CD rat assessed as change in blood pressure at 5 mg, ip after 2 hrs relative to control; assay type: functional
[26] = tested on: Rattus norvegicus; assay: Hypotensive activity in deoxycorticosterone acetate treated hypertensive CD rat assessed as change in blood pressure at 10 mg, ip after 24 hrs relative to control; assay type: functional
[27] = tested on: Rattus norvegicus; assay: Cardiovascular activity in deoxycorticosterone acetate treated hypertensive CD rat assessed as change in heart rate at 5 mg, ip after 1 hr relative to control; assay type: ADME, organism-based; settings: in vivo
[28] = tested on: Rattus norvegicus; assay: Hypotensive activity in deoxycorticosterone acetate treated hypertensive CD rat assessed as change in blood pressure at 5 mg, ip after 24 hrs relative to control; assay type: functional
[29] = tested on: Rattus norvegicus; assay: Cardiovascular activity in deoxycorticosterone acetate treated hypertensive CD rat assessed as change in heart rate at 5 mg, ip after 4 hrs relative to control; assay type: ADME, organism-based; settings: in vivo
[30] = tested on: Rattus norvegicus; assay: Cardiovascular activity in deoxycorticosterone acetate treated hypertensive CD rat assessed as change in heart rate at 5 mg, ip after 2 hrs relative to control; assay type: ADME, organism-based; settings: in vivo
[31] = tested on: Rattus norvegicus; assay: Cardiovascular activity in deoxycorticosterone acetate treated hypertensive CD rat assessed as change in heart rate at 5 mg, ip after 24 hrs relative to control; assay type: ADME, organism-based; settings: in vivo

Br.CCC(C)CN1CCc2c(c3c(c(OC)c2OC)CCC3)C1 (stereo not drawn)
Activity [1]: 11.8%
Activity [2]: 5%
LD50 at 24 h [3]: 178 mg/kg
Activity [4]: -6.7%
Activity [5]: -17.2%
Activity [6]: -12.6%
Activity [7]: 13.7%
Activity [8]: -0.3%
Activity [9]: 1.3%

Br.COc1c2c(c3c(c1OC)CCN(C)C3)CCC2
Activity [10]: 12.2%
Activity [11]: 13%
Activity [12]: 13.2%
Activity [13]: 19.7%
Activity [14]: -0.4%
Activity [15]: 11.2%
LD50 at 24 h [3]: 10 mg/kg
Activity [16]: 1.8%
Activity [17]: -2.6%

COc1c2c(c3c(c1OC)CCNC3)CCC2
Activity [18]: 2.4%
Activity [19]: -2.6%
Activity [20]: -13.2%
Activity [21]: -9.5%
Activity [22]: -6.5%
Activity [23]: 4.7%
LD50 at 24 h [3]: 25 mg/kg
Activity [24]: 9%
Activity [25]: -3%
Activity [26]: 1%
Activity [27]: -5.2%
Activity [28]: 1.8%
Activity [29]: -8.5%
Activity [30]: -1.4%
Activity [31]: -12.2%
